Test system: PCA in rats
Experiment: Passive cutaneous anaphylaxis (PCA) in rats, anti-allergic action, oral administration
Assay type: in vivo, rat
Conditions: for ED50: Rattus norvegicus, dose which reduces diameter of color patch by 50% relative to non-medicated controls, read-out: Inhibition of PCA in rats, ED 50%; for ED50 / R.A. (relative activity) / times more active than the comparative compound Pirquinozol: oral; for R.A. (relative activity): Pirquinozol = 1.00
Experimental: The anti-allergic action was tested on rats, using the passive cutaneous anaphylaxis (PCA) model.
Narcotized male rats (100 to 140 g) are sensitized by intradermal injection (into the shaved dorsal skin) of 0.1 ml of an ovalbumin antiserum. After a sensitization period of about 48 hours, the treatment (intraperitoneal or oral administration) is carried out with various dosages (10 animals/dose)of the test substances. 15-20 minutes after treatment, an antigen/Evans blue mixture (10 mg/kg of ovalbumin in 2% strength Evans blue solution) is injected intravenously into the test animals. 30 minutes later, the animals are sacrificed, the dorsal skin is removed and the diameter of the circular blue coloration is measured on the inner surface. The size of the color patches of untreated control animals can be standardized. Anti-allergic substances reduce the diameter of the color patch by an amount dependent on the dose. The ED 50% is quoted as the dose which reduces the diameter of the color patch by 50% relative to that of non-medicated control animals. In addition to the anti-allergic action, the acute toxicity was determined for intraperitoneal administration, using groups of 2 NMRI mice, each weighing 20-26 g, and for oral administration, using groups of 2 Sprague-Dawley rats, each weighing 120-150 g. The LD 50 was determined on groups of 10 NMRI mice, each weighing 20-26 g, after intraperitoneal administration. The post-observation period was 14 days.

Row | Structure (SMILES) | ED50 [mg/kg] | R.A. (relative activity) (PCA rats) | activity in oral doses (in words) (oral doses of up to 100 mg/kg, PCA rats) | times more active than the comparative compound Pirquinozol (PCA rats) [times]
1 | O=c1[nH]c2ccccc2c2cc(CO)nn12 [Pirquinozol, reference compound] | 1.19 | 1.00 |  | 
2 | CCOC(=O)c1nc2c3cc(C)c(C)cc3n(CC)c(=O)n2n1 [Example 28, Ethyl 8,9-dimethyl-6-ethyl-1,2,4-triazolo[1,5-c]quinazolin-5-one-2-carboxylate] | 0.876 | 1.36 |  | 
3 | O=C(O)c1cc(=O)c2c(OCC(O)COc3cccc4oc(C(=O)O)cc(=O)c34)cccc2o1 [Cromolyne, reference compound] | > 100 |  | inactive | 
4 | CCOC(=O)c1nc2c3cc(C)c(C)cc3n(C)c(=O)n2n1 [Example 27, Ethyl 6,8,9-trimethyl-1,2,4-triazolo[1,5-c]quinazolin-5-one-2-carboxylate] | 1 | 1.19 |  | 1.2
5 | CCOC(=O)c1nc2c3cc(C)ccc3n(CC)c(=O)n2n1 [Example 17, Ethyl 6-ethyl-9-methyl-1,2,4-triazolo[1,5-c]quinazolin-5-one-2-carboxylate] | 0.271 | 4.39 |  | 4.4
6 | CCOC(=O)c1nc2c3ccccc3n(CC)c(=O)n2n1 [Example 14, Ethyl 6-ethyl-1,2,4-triazolo[1,5-c]quinazolin-5-one-2-carboxylate] | 0.707 | 1.68 |  | 
7 | CCOC(=O)c1nc2c3cc(Cl)ccc3n(C)c(=O)n2n1 [Example 20, Ethyl 9-chloro-6-methyl-1,2,4-triazolo[1,5-c]quinazolin-5-one-2-carboxylate] | 0.723 | 1.64 |  | 
8 | CCOC(=O)c1nc2c3cc(C)ccc3n(C)c(=O)n2n1 [Example 25, Ethyl 6,9-dimethyl-1,2,4-triazolo[1,5-c]quinazolin-5-one-2-carboxylate] | 0.617 | 1.92 |  | 
9 | CCOC(=O)c1nc2c3ccccc3n(C)c(=O)n2n1 [Example 13, Ethyl 6-methyl-1,2,4-triazolo[1,5-c]quinazolin-5-one-2-carboxylate] | 0.518 | 2.29 |  | 

— US4463007A, “Triazoloquinazolinones, and compositions and methods for treating allergic disorders with them” (BASF Aktiengesellschaft, priority 1981, dated 1984)
